Experimental data taken from patent US11440907B1 (Merck Patent GmbH, priority 2018, dated 2022).

Experiments:
[1] = system: XBP1(u)-luciferase splicing reporter in HepG2 hepatoma cells; experiment: HepG2 XBP1 reporter assay (XBP1(u)-Luc); format: cell-based; conditions: Homo sapiens, 6 hours after compound addition, Table 3, read-out: XBP1-luc HepG2 1 EC50
[2] = system: β-catenin-TCF-mediated reporter transcription activity in Colo 205 cells; experiment: Colo 205 reporter assay (TCF/LEF promoter-driven firefly luciferase); format: cell-based; conditions: Homo sapiens; Colo 205 TCF/LEF luciferase reporter, 5 hours after compound addition, 384 well; read-out: Colo205 IC50
Excerpt: The compounds of the invention described herein were screened using the assay procedure for β-catenin-TCF-mediated reporter transcription activity described below.
Reporter cell lines were generated by stably transfecting cells of cancer cell lines (e.g., colon cancer) with a plasmid reporter construct (From SABiosciences, a QIAGEN company) that includes TCF/LEF promoter driving expression of the firefly luciferase gene. TCF/LEF reporter constructs were made in which TCF/LEF promoter, a promoter with optimal number of TCF/LEF binding sites designed by SABiosciences, was linked upstream of the firefly luciferase gene. This construct could also include a puromycin resistance gene as a selectable marker. This construct could also be used to stably transfect Colo 205 cells, a colon cancer cell line having a mutated APC gene that causes a constitutively active β-catenin. A control cell line was generated using another plasmid construct containing the luciferase gene under the control of a CMV basal promoter which is not activated by β-catenin.
Colo 205 Cultured cells with a stably transfected reporter construct were plated at approximately 10,000 cells per well into 384 well multi-well plates for twenty four hours. The testing compounds were then added to the wells in 2-fold serial dilutions using a twenty micromolar top concentration. A series of control wells for each cell type received only compound solvent. Five hours after the addition of compound, reporter activity for luciferase was assayed, by addition of the SteadyGlo luminescence reagent (Promega). The reporter luminescence activity was measured using Pherastar plate reader (BMG Labtech). Readings were normalized to DMSO only treated cells, and normalized activities were then used in the IC50 calculations. The Colo 205 reporter assay data are summarized in Table 3: A<0.3 μM; 0.3 μM≤B<1.0 μM; 1.0 μM≤C<5.0 μM; D≥5.0 μM.

| EC50 [1] | IC50 [2] | Compound |
| --- | --- | --- |
| 600 to 2000 nM | 300 to 1000 nM | CC(=O)Nc1cc(C2COCCCN2c2cc(C)nc(N)n2)c(Cl)cc1F (racemic) [I-85, N-[5-[4-(2-amino-6-methyl-pyrimidin-4-yl)-1,4-oxazepan-3-yl]-4-chloro-2-fluoro-phenyl]acetamide] |
| < 600 nM | 300 to 1000 nM | Cc1cc(N2CCCOCC2c2ccc(NC(=O)C(C)(F)F)cc2Cl)nc(N)n1 (racemic) [I-228, (+/−)-N-(4-(4-(2-amino-6-methylpyrimidin-4-yl)-1,4-oxazepan-3-yl)-3-chlorophenyl)-2,2-difluoropropanamide] |
| < 600 nM | 300 to 1000 nM | Cc1cc(N2CCCOCC2c2ccc(OCCC(C)(C)O)cc2Cl)nc(N)n1 (racemic) [I-230, (+/−)-4-[4-[4-(2-amino-6-methyl-pyrimidin-4-yl)-1,4-oxazepan-3-yl]-3-chloro-phenoxy]-2-methyl-butan-2-ol] |
| < 600 nM | < 300 nM | Cc1cc(N2CCCOCC2c2ccc(OC[C@@H](C)O)cc2Cl)nc(N)n1 (mixture of isomers) [I-232, (+/−)-1-(4-(4-(2-amino-6-methylpyrimidin-4-yl)-1,4-oxazepan-3-yl)-3-chlorophenoxy)propan-2-ol] |
| < 600 nM | < 300 nM | Cc1cc(N2CCCOCC2c2ccc(C3CCCO3)cc2Cl)nc(N)n1 (racemic) [I-235, (+/−)-4-(3-(2-chloro-4-(tetrahydrofuran-2-yl)phenyl)-1,4-oxazepan-4-yl)-6-methylpyrimidin-2-amine] |
| < 600 nM | < 300 nM | Cc1cc(N2CCCOCC2c2ccc(C(CO)CO)cc2Cl)nc(N)n1 (racemic) [I-236, (+/−)-2-(4-(4-(2-amino-6-methylpyrimidin-4-yl)-1,4-oxazepan-3-yl)-3-chlorophenyl)propane-1,3-diol] |
| < 600 nM | < 300 nM | Cc1cc(N2CCCOCC2c2ccc(C3CCOC3)cc2Cl)nc(N)n1 (racemic) [I-238, (+/−)-4-(3-(2-chloro-4-(tetrahydrofuran-3-yl)phenyl)-1,4-oxazepan-4-yl)-6-methylpyrimidin-2-amine] |
| 600 to 2000 nM | < 300 nM | Cc1cc(N2CCCOCC2c2cc(NC(=O)CC(C)(C)O)ccc2Cl)nc(N)n1 (racemic) [I-251, (+/−)-N-[3-[4-(2-amino-6-methyl-pyrimidin-4-yl)-1,4-oxazepan-3-yl]-4-chloro-phenyl]-3-hydroxy-3-methyl-butanamide] |
| < 600 nM | < 300 nM | CC(=O)N(C)Cc1ccc(C2COCCCN2c2cc(C)nc(N)n2)c(Cl)c1 (racemic) [I-254, (+/−)-N-(4-(4-(2-amino-6-methylpyrimidin-4-yl)-1,4-oxazepan-3-yl)-3-chlorobenzyl)-N-methylacetamide] |
| 600 to 2000 nM | < 300 nM | Cc1cc(N2CCCOCC2c2ccc(C3COC3)cc2Cl)nc(N)n1 (racemic) [I-255, (+/−)-4-[3-[2-chloro-4-(oxetan-3-yl)phenyl]-1,4-oxazepan-4-yl]-6-methyl-pyrimidin-2-amine] |
|  | 300 to 1000 nM | COc1ccc(Cl)cc1C1COCCCN1c1cc(C)nc(N)n1 (centres unmarked) [I-291] |
|  | 300 to 1000 nM | COC(=O)c1ccc(C2COCCCN2c2cc(C)nc(N)n2)c(Cl)c1 (centres unmarked) [I-292] |
|  | 300 to 1000 nM | Cc1cc(N2CCCOCC2c2ccc(C(=O)N(C)C)cc2Cl)nc(N)n1 (centres unmarked) [I-293] |

Second part, the compound before the results:

| Compound | EC50 [1] | IC50 [2] |
| --- | --- | --- |
| Cc1cc(N2CCCCCC2c2ccccc2)nc(N)n1 (racemic) [I-4, (+/−)-4-methyl-6-(2-phenylazepan-1-yl)pyrimidin-2-amine] | 2000 to 5000 nM | 300 to 1000 nM |
| Cc1cc(N2CCCCCC2c2ccccc2C)nc(N)n1 (racemic) [I-6, (+/−)-4-methyl-6-(2-(2-(methyl)phenyl)azepan-1-yl)pyrimidin-2-amine] | 2000 to 5000 nM | 300 to 1000 nM |
| COc1ccc(C2CCCCCN2c2cc(C)nc(N)n2)cc1 (racemic) [I-23, (+/−)-4-[2-(4-methoxyphenyl)azepan-1-yl]-6-methyl-pyrimidin-2-amine] | ≥ 5000 nM | 300 to 1000 nM |
| COc1ccc(OC)c(C2CCCCCN2c2cc(C)nc(N)n2)c1 (racemic) [I-25, (+/−)-4-(2-(2,5-dimethoxyphenyl)azepan-1-yl)-6-methylpyrimidin-2-amine] | 600 to 2000 nM | < 300 nM |
| CCc1ccccc1C1CCCCCN1c1cc(C)nc(N)n1 (racemic) [I-45, (+/−)-4-(2-(2-ethylphenyl)azepan-1-yl)-6-methylpyrimidin-2-amine] | 600 to 2000 nM | 300 to 1000 nM |
| COc1cccc(F)c1C1CCCCCN1c1cc(C)nc(N)n1 (racemic) [I-50, (+/−)-4-[2-(2-fluoro-6-methoxy-phenyl)azepan-1-yl]-6-methyl-pyrimidin-2-amine] | 600 to 2000 nM | 300 to 1000 nM |
| Cc1cc(N2CCCOC[C@@H]2c2cc(NC(=O)CCO)ccc2Cl)nc(N)n1 (racemic) [I-174, (+/−)-N-[3-[4-(2-amino-6-methyl-pyrimidin-4-yl)-1,4-oxazepan-3-yl]-4-chloro-phenyl]-3-hydroxy-propanamide] | 600 to 2000 nM | 300 to 1000 nM |
| Cc1cc(N2CCCOCC2c2ccc(N3CCN(C)CC3)cc2Cl)nc(N)n1 (racemic) [I-225, (+/−)-4-[3-[2-chloro-4-(4-methylpiperazin-1-yl)phenyl]-1,4-oxazepan-4-yl]-6-methyl-pyrimidin-2-amine] | 600 to 2000 nM | 300 to 1000 nM |
| Cc1cc(N2CCCOCC2c2ccc(N3CCCC3)cc2Cl)nc(N)n1 (racemic) [I-227, (+/−)-4-[3-(2-chloro-4-pyrrolidin-1-yl-phenyl)-1,4-oxazepan-4-yl]-6-methyl-pyrimidin-2-amine] | 600 to 2000 nM | 300 to 1000 nM |
| Cc1cc(N2CCCOCC2c2ccc(OCC3(C)CCOC3)cc2Cl)nc(N)n1 (racemic) [I-229, (+/−)-4-[3-[2-chloro-4-[(3-methyltetrahydrofuran-3-yl)methoxy]phenyl]-1,4-oxazepan-4-yl]-6-methyl-pyrimidin-2-amine] | < 600 nM | 300 to 1000 nM |
| Cc1cc(N2CCCOCC2c2ccc(OC3COC3)cc2Cl)nc(N)n1 (racemic) [I-231, (+/−)-4-[3-[2-chloro-4-(oxetan-3-yloxy)phenyl]-1,4-oxazepan-4-yl]-6-methyl-pyrimidin-2-amine] | < 600 nM | < 300 nM |
| Cc1cc(N2CCCOCC2c2ccc(OCC3(CO)CC3)cc2Cl)nc(N)n1 (racemic) [I-233, (+/−)-[1-[[4-[4-(2-amino-6-methyl-pyrimidin-4-yl)-1,4-oxazepan-3-yl]-3-chloro-phenoxy]methyl]-cyclopropyl]methanol] | 600 to 2000 nM | < 300 nM |
| Cc1cc(N2CCCOCC2c2ccc(C3CCC(=O)N3C)cc2Cl)nc(N)n1 (racemic) [I-239, (+/−)-5-(4-(4-(2-amino-6-methylpyrimidin-4-yl)-1,4-oxazepan-3-yl)-3-chlorophenyl)-1-methylpyrrolidin-2-one] | < 600 nM | 300 to 1000 nM |
| Cc1cc(N2CCCOCC2c2cc(NC(=O)C3CC3)ccc2Cl)nc(N)n1 (racemic) [I-241, (+/−)-N-[3-[4-(2-amino-6-methyl-pyrimidin-4-yl)-1,4-oxazepan-3-yl]-4-chloro-phenyl]cyclopropanecarboxamide] | < 600 nM | < 300 nM |
| Cc1cc(N2CCCOCC2c2cc(NCCCO)ccc2Cl)nc(N)n1 (racemic) [I-249, (+/−)-3-[3-[4-(2-amino-6-methyl-pyrimidin-4-yl)-1,4-oxazepan-3-yl]-4-chloro-anilino]propan-1-ol] | < 600 nM | < 300 nM |
| Cc1cc(N2CCCOCC2c2cc(NC(=O)C(F)F)ccc2Cl)nc(N)n1 (racemic) [I-250, (+/−)-N-(3-(4-(2-amino-6-methylpyrimidin-4-yl)-1,4-oxazepan-3-yl)-4-chlorophenyl)-2,2-difluoroacetamide] | < 600 nM | < 300 nM |
| Cc1cc(N2CCCOCC2c2ccc(C3CCCN3)cc2Cl)nc(N)n1 (racemic) [I-267] | < 600 nM | < 300 nM |
| Cc1cc(N2CCCOCC2c2cc3c(cc2Cl)SCC(=O)N3)nc(N)n1 (racemic) [I-268, 6-[4-(2-amino-6-methyl-pyrimidin-4-yl)-1,4-oxazepan-3-yl]-7-chloro-4H-1,4-benzothiazin-3-one] | < 600 nM | < 300 nM |
| Cc1cc(N2CCCOCC2c2ccc(N3CCN(C(=O)C4CC4)CC3)cc2Cl)nc(N)n1 (racemic) [I-273, (+/−)-[4-[4-[4-(2-amino-6-methyl-pyrimidin-4-yl)-1,4-oxazepan-3-yl]-3-chloro-phenyl]piperazin-1-yl]-cyclopropyl-methanone] | < 600 nM | < 300 nM |
| COc1cc(F)c(F)cc1C1COCCCN1c1cc(C)nc(N)n1 (centres unmarked) [I-286] |  | 300 to 1000 nM |
| COC(=O)c1ccc(C2COCCCN2c2cc(C)nc(N)n2)c(OC)c1 (centres unmarked) [I-290] |  | 300 to 1000 nM |
| Cc1cc(Nc2ccc(Cl)c(C3COCCCN3c3cc(C)nc(N)n3)c2)nc(N)n1 (centres unmarked) [I-294] |  | 300 to 1000 nM |
| Cc1cc(N2CCC(C)OCC2c2ccccc2Cl)nc(N)n1 (centres unmarked) [I-301] |  | < 300 nM |
